In PubChem BioAssay (NCI):
Where “and” joins values, the source holds several entries; their conditions need not be identical. Identical values can stand only once.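 Results reflect a 48-hour exposure of cells in 96-well plates to compound at five concentrations. GI50 is the concentration that inhibits growth by half. TGI marks complete inhibition of growth.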

Key:
Assay in all cases: NCI anticancer screen, dose series, 48 h
SK-MEL-5 melanoma = system: SK-MEL-5 melanoma
MOLT-4 leukemia = system: MOLT-4 leukemia
OVCAR-3 ovarian = system: OVCAR-3 ovarian
HL-60(TB) leukemia = system: HL-60(TB) leukemia
A549 NSCLC = system: A549 NSCLC
786-0 renal = system: 786-0 renal
ACHN renal = system: ACHN renal
NCI-H226 lung = system: NCI-H226 lung
MCF7 breast = system: MCF7 breast
EKVX NSCLC = system: EKVX NSCLC
HS 578T breast = system: HS 578T breast
A498 renal = system: A498 renal
RXF 393 renal = system: RXF 393 renal
NCI-H522 lung = system: NCI-H522 lung
OVCAR-8 ovarian = system: OVCAR-8 ovarian
HOP-62 NSCLC = system: HOP-62 NSCLC
MDA-MB-435 = system: MDA-MB-435
BT-549 breast = system: BT-549 breast
PC-3 prostate = system: PC-3 prostate
UO-31 renal = system: UO-31 renal
SN12C renal = system: SN12C renal
SW-620 colon = system: SW-620 colon
NCI-H460 lung = system: NCI-H460 lung
DU-145 prostate = system: DU-145 prostate
RPMI-8226 leukemia = system: RPMI-8226 leukemia
CAKI-1 renal = system: CAKI-1 renal
OVCAR-5 ovarian = system: OVCAR-5 ovarian
OVCAR-4 ovarian = system: OVCAR-4 ovarian
SF-268 CNS = system: SF-268 CNS

Compound: O=C(O)C(Cl)Cl
- GI50 (SK-MEL-5 melanoma): > 10 mM
- TGI (SK-MEL-5 melanoma): > 10 mM
- GI50 (MOLT-4 leukemia): 8.18 mM and > 8.7 mM
- TGI (MOLT-4 leukemia): > 10 mM
- GI50 (OVCAR-3 ovarian): 4.71 mM and > 10 mM
- TGI (OVCAR-3 ovarian): > 10 mM
- GI50 (HL-60(TB) leukemia): 7.27 mM and > 7.66 mM
- TGI (HL-60(TB) leukemia): > 10 mM
- GI50 (A549 NSCLC): 7.56 mM and > 10 mM
- TGI (A549 NSCLC): > 10 mM
- GI50 (786-0 renal): 5.69 mM and > 10 mM
- TGI (786-0 renal): > 10 mM
- GI50 (ACHN renal): 5.7 mM and > 10 mM
- TGI (ACHN renal): > 10 mM
- GI50 (NCI-H226 lung): 8.13 mM and > 10 mM
- TGI (NCI-H226 lung): > 10 mM
- GI50 (MCF7 breast): 5.56 mM and > 10 mM
- TGI (MCF7 breast): > 10 mM
- GI50 (EKVX NSCLC): > 10 mM
- TGI (EKVX NSCLC): > 10 mM
- GI50 (HS 578T breast): 3.09 mM and > 10 mM
- TGI (HS 578T breast): > 10 mM
- GI50 (A498 renal): 2.67 mM and > 10 mM
- TGI (A498 renal): > 10 mM
- GI50 (RXF 393 renal): 5.14 mM and > 10 mM
- TGI (RXF 393 renal): > 10 mM
- GI50 (NCI-H522 lung): 8.04 mM and > 10 mM
- TGI (NCI-H522 lung): > 10 mM
- GI50 (OVCAR-8 ovarian): > 10 mM
- TGI (OVCAR-8 ovarian): > 10 mM
- GI50 (HOP-62 NSCLC): > 10 mM
- TGI (HOP-62 NSCLC): > 10 mM
- GI50 (MDA-MB-435): 5.46 mM and > 10 mM
- TGI (MDA-MB-435): > 10 mM
- GI50 (BT-549 breast): 2.78 mM and > 8.92 mM
- TGI (BT-549 breast): > 10 mM
- GI50 (PC-3 prostate): > 10 mM
- TGI (PC-3 prostate): > 10 mM
- GI50 (UO-31 renal): 2.09 mM and > 6.87 mM
- TGI (UO-31 renal): 5.01 mM and > 9.34 mM
- GI50 (SN12C renal): 8.18 mM and > 10 mM
- TGI (SN12C renal): > 10 mM
- GI50 (SW-620 colon): > 10 mM
- TGI (SW-620 colon): > 10 mM
- GI50 (NCI-H460 lung): 6.07 mM and > 10 mM
- TGI (NCI-H460 lung): > 10 mM
- GI50 (DU-145 prostate): 5.72 mM and > 10 mM
- TGI (DU-145 prostate): > 10 mM
- GI50 (RPMI-8226 leukemia): 3.21 mM and > 9.4 mM
- TGI (RPMI-8226 leukemia): > 10 mM
- GI50 (CAKI-1 renal): 5.49 mM and > 10 mM
- TGI (CAKI-1 renal): > 10 mM
- GI50 (OVCAR-5 ovarian): > 10 mM
- TGI (OVCAR-5 ovarian): > 10 mM
- GI50 (OVCAR-4 ovarian): 3.3 mM and 8.52 mM
- TGI (OVCAR-4 ovarian): > 10 mM
- GI50 (SF-268 CNS): 4.97 mM and > 10 mM
- TGI (SF-268 CNS): > 10 mM
